Key:
Test in all cases: KinaseProfiler Assay
MSK2 = MSK2 (Homo sapiens, UniProt O75676)
Fer = Fer (Homo sapiens, UniProt P16591)
Fyn = Fyn (Homo sapiens, UniProt P06241)
Sequence of Fyn (P06241 whole entry): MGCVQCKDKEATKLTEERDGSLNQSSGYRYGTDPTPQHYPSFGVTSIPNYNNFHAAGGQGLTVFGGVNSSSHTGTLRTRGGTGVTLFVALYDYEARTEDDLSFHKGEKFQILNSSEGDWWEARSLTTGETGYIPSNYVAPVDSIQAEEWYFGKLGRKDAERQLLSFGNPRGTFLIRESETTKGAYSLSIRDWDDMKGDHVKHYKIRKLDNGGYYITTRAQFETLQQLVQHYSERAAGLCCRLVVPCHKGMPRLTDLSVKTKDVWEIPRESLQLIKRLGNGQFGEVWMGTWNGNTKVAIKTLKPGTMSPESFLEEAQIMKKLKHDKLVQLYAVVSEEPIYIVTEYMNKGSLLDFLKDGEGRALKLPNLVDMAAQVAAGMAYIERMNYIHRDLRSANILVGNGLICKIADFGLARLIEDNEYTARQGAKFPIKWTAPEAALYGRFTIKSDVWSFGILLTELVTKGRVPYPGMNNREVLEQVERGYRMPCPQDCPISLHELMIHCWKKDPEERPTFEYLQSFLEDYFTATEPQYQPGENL

Sequence of MSK2 (O75676 whole entry): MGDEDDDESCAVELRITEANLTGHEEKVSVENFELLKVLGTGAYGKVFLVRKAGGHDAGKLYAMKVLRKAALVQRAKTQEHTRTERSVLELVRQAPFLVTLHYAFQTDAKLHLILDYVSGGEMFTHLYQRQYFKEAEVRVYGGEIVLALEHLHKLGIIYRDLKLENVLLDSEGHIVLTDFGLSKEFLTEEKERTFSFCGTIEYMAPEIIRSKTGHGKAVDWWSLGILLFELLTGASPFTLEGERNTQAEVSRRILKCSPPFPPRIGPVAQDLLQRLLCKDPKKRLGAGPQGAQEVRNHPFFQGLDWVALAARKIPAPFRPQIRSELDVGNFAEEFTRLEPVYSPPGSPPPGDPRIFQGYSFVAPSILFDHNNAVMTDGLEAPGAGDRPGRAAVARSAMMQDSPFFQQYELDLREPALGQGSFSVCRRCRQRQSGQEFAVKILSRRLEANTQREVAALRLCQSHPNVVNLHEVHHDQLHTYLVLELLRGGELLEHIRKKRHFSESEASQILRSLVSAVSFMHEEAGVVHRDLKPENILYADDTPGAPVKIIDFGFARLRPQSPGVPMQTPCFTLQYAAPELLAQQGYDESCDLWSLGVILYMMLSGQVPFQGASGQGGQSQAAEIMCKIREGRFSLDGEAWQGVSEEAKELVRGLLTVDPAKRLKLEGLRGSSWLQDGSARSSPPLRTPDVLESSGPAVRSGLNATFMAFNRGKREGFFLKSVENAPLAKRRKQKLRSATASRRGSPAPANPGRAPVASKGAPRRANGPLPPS
Sequence of Fer (P16591 whole entry): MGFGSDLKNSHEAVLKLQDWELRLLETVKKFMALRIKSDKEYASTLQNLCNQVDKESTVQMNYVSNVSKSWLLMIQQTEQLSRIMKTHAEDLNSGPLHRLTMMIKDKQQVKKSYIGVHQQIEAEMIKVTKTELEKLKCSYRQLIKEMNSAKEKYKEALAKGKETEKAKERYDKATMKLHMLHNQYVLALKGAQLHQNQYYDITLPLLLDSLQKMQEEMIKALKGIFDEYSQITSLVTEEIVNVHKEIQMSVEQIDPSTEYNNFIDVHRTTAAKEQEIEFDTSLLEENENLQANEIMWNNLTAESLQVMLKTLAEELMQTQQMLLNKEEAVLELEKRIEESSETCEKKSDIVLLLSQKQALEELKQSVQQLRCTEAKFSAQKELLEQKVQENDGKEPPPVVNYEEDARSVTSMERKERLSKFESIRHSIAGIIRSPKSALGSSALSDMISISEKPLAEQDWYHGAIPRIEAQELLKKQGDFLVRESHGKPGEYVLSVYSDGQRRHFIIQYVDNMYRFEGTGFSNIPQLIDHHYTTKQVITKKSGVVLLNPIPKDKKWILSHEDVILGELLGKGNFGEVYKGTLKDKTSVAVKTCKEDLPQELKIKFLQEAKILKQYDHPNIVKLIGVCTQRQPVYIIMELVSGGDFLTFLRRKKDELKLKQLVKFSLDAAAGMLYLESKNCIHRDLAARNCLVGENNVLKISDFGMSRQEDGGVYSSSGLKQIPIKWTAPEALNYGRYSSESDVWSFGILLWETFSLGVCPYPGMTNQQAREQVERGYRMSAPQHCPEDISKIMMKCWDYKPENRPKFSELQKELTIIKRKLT

**Q.** COc1cc(O)c(CC=C(C)C)c(O)c1C(=O)/C=C/c1ccc(O)cc1 [Xanthohumol, xanthohumol] was tested. Which “Kinase activity, % of Control” value (MSK2; 1 ug/ml) did it give?
**A.** Its value is 126 % of Control.

**Q.** And the “Kinase activity, % of Control” value (MSK2; 5 ug/ml)?
**A.** Its value is 61 % of Control.

**Q.** And the “Kinase activity, % of Control” value (MSK2; 25 ug/ml)?
**A.** Its value is 8 % of Control.

**Q.** What about the “Kinase activity, % of Control” value (MSK2; 50 ug/ml) of the same molecule?
**A.** The value was 19 % of Control.

**Q.** And the “Kinase activity, % of Control” value (Fer; 1 ug/ml)?
**A.** Its value is 55 % of Control.

**Q.** And the “Kinase activity, % of Control” value (Fer; 5 ug/ml)?
**A.** Its value is 20 % of Control.

**Q.** And the “Kinase activity, % of Control” value (Fer; 25 ug/ml)?
**A.** Its value is 10 % of Control.

**Q.** What about the “Kinase activity, % of Control” value (Fer; 50 ug/ml) of the same molecule?
**A.** Its value is 1 % of Control.

**Q.** And the “Kinase activity, % of Control” value (Fyn; 1 ug/ml)?
**A.** The value was 104 % of Control.

**Q.** And the “Kinase activity, % of Control” value (Fyn; 5 ug/ml)?
**A.** The value was 66 % of Control.

**Q.** And the “Kinase activity, % of Control” value (Fyn; 25 ug/ml)?
**A.** Its value is 42 % of Control.

**Q.** And the “Kinase activity, % of Control” value (Fyn; 50 ug/ml)?
**A.** The value was 18 % of Control.

From patent publication US20080031982A1 (Metaproteomics, LLC, priority 2006, published 2008)
